Literature values, collected in patent publication US20040167185A1, “Methods of treating conditions associated with an Edg-3 receptor” (priority 2003, published 2004).
pKd: −log10 of the molar value. Structures can show the parent of a compound that is named as a salt.

Assays:
Adrenergic β = conditions: Kd of the radioligand; Wistar rat brain; historical value
[1] = biological target: Adrenergic α1, non-selective
[2] = biological target: Serotonin 5-HT1, non-selective; conditions: Kd of the radioligand; Wistar rat cerebral cortex; historical value
Angiotensin AT2 = biological target: T1, Angiotensin AT2 (Homo sapiens, UniProt P50052); conditions: Kd of the radioligand; Human recombinant Hela cells; historical value
T1 construct: expressed in transfected cells; host or cells: Hela cells
T1 sequence (P50052 1-363): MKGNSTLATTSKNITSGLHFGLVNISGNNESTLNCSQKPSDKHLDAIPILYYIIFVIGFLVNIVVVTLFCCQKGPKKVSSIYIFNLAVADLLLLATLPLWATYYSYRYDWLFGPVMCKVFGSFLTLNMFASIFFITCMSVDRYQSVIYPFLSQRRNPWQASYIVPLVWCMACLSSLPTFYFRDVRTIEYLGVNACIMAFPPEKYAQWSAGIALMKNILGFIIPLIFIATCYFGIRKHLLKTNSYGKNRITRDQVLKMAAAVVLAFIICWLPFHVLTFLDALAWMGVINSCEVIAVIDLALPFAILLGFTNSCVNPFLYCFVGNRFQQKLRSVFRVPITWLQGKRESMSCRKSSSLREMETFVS

For `CCCc1ccccc1OCC(O)CNC(C)C` (stereo not shown) [^3H Dihydroaplenolol, Dihydroaplenolol], the pKd (Adrenergic β) is given as 9.30.
In the case of `COc1cc2nc(N3CCN(C(=O)c4ccco4)CC3)nc(N)c2cc1OC` [^3H Prazosin, Prazosin], the pKd [1] is given as 9.54.
For `NCCc1c[nH]c2ccc(O)cc12` [^3H Serotonin (5-HT) Trifluoroacetate, Serotonin (5-HT) Trifluoroacetate], the pKd [2] is given as 9.21.
In the case of CGP-42112A [^125I CGP-42112A], the pKd (Angiotensin AT2) is given as 10.92.
